From patent US12509444B2, “Compounds and methods for CD73 modulation and indications therefor” (Plexxikon Inc., priority 2019, dated 2025)
pIC50: −log10 of the molar value.

Key:
[1] = biological target: T1, Human CD73 (amino acid residues 27-549) (Homo sapiens, UniProt P21589); experiment: CD73 enzymatic assay (luciferase-based indirect assay, CellTiter-Glo); format: biochemical; conditions: 0.4 nM CD73, 150 μM AMP, 1 hour at room temperature
T1 construct: Human CD73 (amino acid residues 27-549); His tag (N); made in house; host or cells: E. coli
T1 sequence (P21589 27-549): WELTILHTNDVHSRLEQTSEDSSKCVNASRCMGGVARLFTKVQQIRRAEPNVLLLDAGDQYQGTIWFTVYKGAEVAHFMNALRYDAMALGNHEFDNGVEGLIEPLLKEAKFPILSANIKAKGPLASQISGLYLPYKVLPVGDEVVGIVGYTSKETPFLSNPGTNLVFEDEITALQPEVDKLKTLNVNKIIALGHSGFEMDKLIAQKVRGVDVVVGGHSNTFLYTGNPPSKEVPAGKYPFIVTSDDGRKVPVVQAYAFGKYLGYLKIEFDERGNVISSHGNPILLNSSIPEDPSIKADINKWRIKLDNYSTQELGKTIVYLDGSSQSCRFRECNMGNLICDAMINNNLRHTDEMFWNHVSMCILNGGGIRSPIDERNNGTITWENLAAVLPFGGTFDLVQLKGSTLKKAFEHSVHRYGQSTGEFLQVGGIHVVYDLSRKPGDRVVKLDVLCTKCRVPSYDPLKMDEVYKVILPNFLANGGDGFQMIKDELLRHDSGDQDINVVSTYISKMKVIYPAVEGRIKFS
In short: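 Residual AMP inhibits luciferase, so luminescence reports CD73 turnover; read with CellTiter-Glo 2.0 plus 1 μM final ATP, 30 min. Reaction used 0.4 nM N-His CD73 (27-549, E. coli), 150 μM AMP, HEPES pH 7.4 with Tween 20, 1 h at room temperature. IC50 fitted by nonlinear regression.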

[2] = biological target: T2, human CD73 (Homo sapiens, UniProt P21589); experiment: Inhibitor activity against CD73 in cell based assay (CD73 expressing CHO-K1 cells); conditions: CHO-K1 cells expressing human CD73, 150 μM AMP, 4 hours of incubation; read-out: CHO-K1 CELL VARIANT: CD73 IC50
T2 construct: expressed in transfected cells
T2 sequence (P21589 27-549): T1 sequence (P21589 27-549)
In short: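 Residual supernatant AMP was quantified via CellTiter-Glo luminescence (1 μM ATP added, 30 min, room temperature) after a 4 h exposure of human CD73-expressing CHO-K1 cells to 150 μM AMP plus compound, top final 10 μM, 8 points. IC50 came from nonlinear regression of percent inhibition.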

pIC50 [1]	pIC50 [2]	SMILES
5.00 to 9.00	5.00 to 9.00	O=C(Nc1ccc(F)cc1)N[C@H]1CC[C@H](NC(=O)O[C@@H]2CCN(c3cn[nH]c(=O)c3Cl)C2)CC1 [P-0178, (R)-1-(5-chloro-6-oxo-1,6-dihydropyridazin-4-yl)pyrrolidin-3-yl ((1r,4R)-4-(3-(4-fluorophenyl)ureido)cyclohexyl)carbamate]
5.00 to 9.00	5.00 to 9.00	COC(=O)[C@H]1CC[C@@H](NC(=O)O[C@@H]2CCN(c3cn[nH]c(=O)c3Cl)C2)CC1 [P-0179, methyl (1S,4s)-4-(((((R)-1-(5-chloro-6-oxo-1,6-dihydropyridazin-4-yl)pyrrolidin-3-yl)oxy)carbonyl)amino) cyclohexane-1-carboxylate]
5.00 to 9.00	4.00 to 5.00	O=C(N[C@H]1CC[C@@H](C(=O)O)CC1)O[C@@H]1CCN(c2cn[nH]c(=O)c2Cl)C1 [P-0180, (1S,4s)-4-(((((R)-1-(5-chloro-6-oxo-1,6-dihydropyridazin-4-yl)pyrrolidin-3-yl)oxy)carbonyl)amino) cyclohexane-1-carboxylic acid]
5.00 to 9.00	5.00 to 9.00	NC(=O)[C@H]1CC[C@@H](NC(=O)O[C@@H]2CCN(c3cn[nH]c(=O)c3Cl)C2)CC1 [P-0181, (R)-1-(5-chloro-6-oxo-1,6-dihydropyridazin-4-yl)pyrrolidin-3-yl ((1s,4S)-4-carbamoylcyclohexyl) carbamate]
5.00 to 9.00	5.00 to 9.00	CCCNC(=O)[C@H]1CC[C@@H](NC(=O)O[C@@H]2CCN(c3cn[nH]c(=O)c3Cl)C2)CC1 [P-0182, (R)-1-(5-chloro-6-oxo-1,6-dihydropyridazin-4-yl)pyrrolidin-3-yl ((1s,4S)-4-(propylcarbamoyl)cyclohexyl) carbamate]
5.00 to 9.00	5.00 to 9.00	O=C(N[C@H]1CC[C@@H](C(=O)Nc2ccccc2)CC1)O[C@@H]1CCN(c2cn[nH]c(=O)c2Cl)C1 [P-0183, (R)-1-(5-chloro-6-oxo-1,6-dihydropyridazin-4-yl)pyrrolidin-3-yl ((1s,4S)-4-(phenylcarbamoyl)cyclohexyl) carbamate]
5.00 to 9.00	5.00 to 9.00	O=C(N[C@H]1CC[C@H](NC(=O)c2ccccc2)CC1)O[C@@H]1CCN(c2cn[nH]c(=O)c2Cl)C1 [P-0184, (R)-1-(5-chloro-6-oxo-1,6-dihydropyridazin-4-yl)pyrrolidin-3-yl ((1r,4R)-4-benzamidocyclohexyl) carbamate]
5.00 to 9.00	5.00 to 9.00	O=C(N[C@H]1CC[C@@H](NS(=O)(=O)c2ccc(F)cc2)CC1)O[C@@H]1CCN(c2cn[nH]c(=O)c2Cl)C1 [P-0185, (R)-1-(5-chloro-6-oxo-1,6-dihydropyridazin-4-yl)pyrrolidin-3-yl ((1s,4S)-4-((4-fluorophenyl)sulfonamido)cyclohexyl)carbamate]
5.00 to 9.00	5.00 to 9.00	O=C(N[C@H]1CC[C@@H](NC(=O)c2ccccc2)CC1)O[C@@H]1CCN(c2cn[nH]c(=O)c2Cl)C1 [P-0186, (R)-1-(5-chloro-6-oxo-1,6-dihydropyridazin-4-yl)pyrrolidin-3-yl ((1s,4S)-4-benzamidocyclohexyl) carbamate]
5.00 to 9.00	5.00 to 9.00	COC(=O)[C@H]1CC[C@H](NC(=O)O[C@@H]2CCN(c3cn[nH]c(=O)c3Cl)C2)CC1 [P-0187, methyl (1R,4r)-4-(((((R)-1-(5-chloro-6-oxo-1,6-dihydropyridazin-4-yl)pyrrolidin-3-yl)oxy)carbonyl)amino) cyclohexane-1-carboxylate]
5.00 to 9.00	5.00 to 9.00	COC(=O)[C@H]1C[C@H](NC(=O)O[C@@H]2CCN(c3cn[nH]c(=O)c3Cl)C2)C1 [P-0188, methyl (1R,3r)-3-(((((R)-1-(5-chloro-6-oxo-1,6-dihydropyridazin-4-yl)pyrrolidin-3-yl)oxy)carbonyl)amino) cyclobutane-1-carboxylate]
5.00 to 9.00	5.00 to 9.00	O=C(Nc1ccc(F)cc1)N[C@H]1CC[C@@H](NC(=O)O[C@@H]2CCN(c3cn[nH]c(=O)c3Cl)C2)CC1 [P-0189, (R)-1-(5-chloro-6-oxo-1,6-dihydropyridazin-4-yl)pyrrolidin-3-yl ((1s,4S)-4-(3-(4-fluorophenyl)ureido)cyclohexyl)carbamate]
5.00 to 9.00	4.00 to 5.00	O=C(N[C@H]1CC[C@H](C(=O)O)CC1)O[C@@H]1CCN(c2cn[nH]c(=O)c2Cl)C1 [P-0190, (1R,4r)-4-(((((R)-1-(5-chloro-6-oxo-1,6-dihydropyridazin-4-yl)pyrrolidin-3-yl)oxy)carbonyl)amino) cyclohexane-1-carboxylic acid]
5.00 to 9.00	5.00 to 9.00	CCCNC(=O)[C@H]1CC[C@H](NC(=O)O[C@@H]2CCN(c3cn[nH]c(=O)c3Cl)C2)CC1 [P-0191, (R)-1-(5-chloro-6-oxo-1,6-dihydropyridazin-4-yl)pyrrolidin-3-yl ((1r,4R)-4-(propylcarbamoyl)cyclohexyl) carbamate]

More lines, now with the values behind:

SMILES	pIC50 [1]	pIC50 [2]
O=C(Nc1ccc(F)cc1)N[C@H]1C[C@H](NC(=O)O[C@@H]2CCN(c3cn[nH]c(=O)c3Cl)C2)C1 [P-0168, (R)-1-(5-chloro-6-oxo-1,6-dihydropyridazin-4-yl)pyrrolidin-3-yl ((1r,3R)-3-(3-(4-fluorophenyl)ureido)cyclobutyl) carbamate]	5.00 to 9.00	5.00 to 9.00
CCOC(=O)N[C@H]1C[C@H](NC(=O)O[C@@H]2CCN(c3cn[nH]c(=O)c3Cl)C2)C1 [P-0169, (R)-1-(5-chloro-6-oxo-1,6-dihydropyridazin-4-yl)pyrrolidin-3-yl ethyl ((1R,3r)-cyclobutane-1,3-diyl)dicarbamate]	5.00 to 9.00	5.00 to 9.00
CS(=O)(=O)N[C@H]1C[C@H](NC(=O)O[C@@H]2CCN(c3cn[nH]c(=O)c3Cl)C2)C1 [P-0170, (R)-1-(5-chloro-6-oxo-1,6-dihydropyridazin-4-yl)pyrrolidin-3-yl ((1r,3R)-3-(methylsulfonamido)cyclobutyl)carbamate]	5.00 to 9.00	5.00 to 9.00
O=C(N[C@H]1C[C@H](NS(=O)(=O)c2ccccc2)C1)O[C@@H]1CCN(c2cn[nH]c(=O)c2Cl)C1 [P-0171, (R)-1-(5-chloro-6-oxo-1,6-dihydropyridazin-4-yl)pyrrolidin-3-yl ((1r,3R)-3-(phenylsulfonamido)cyclobutyl) carbamate]	5.00 to 9.00	5.00 to 9.00
O=CN[C@H]1C[C@H](NC(=O)O[C@@H]2CCN(c3cn[nH]c(=O)c3Cl)C2)C1 [P-0172, (R)-1-(5-chloro-6-oxo-1,6-dihydropyridazin-4-yl)pyrrolidin-3-yl ((1r,3R)-3-formamidocyclobutyl) carbamate]	5.00 to 9.00	5.00 to 9.00
O=C(NC1CCCC1)N[C@H]1CC[C@H](NC(=O)O[C@@H]2CCN(c3cn[nH]c(=O)c3Cl)C2)CC1 [P-0173, (R)-1-(5-chloro-6-oxo-1,6-dihydropyridazin-4-yl)pyrrolidin-3-yl ((1r,4R)-4-(3-cyclopentylureido)cyclohexyl) carbamate]	5.00 to 9.00	5.00 to 9.00
O=C(NC1CCCCC1)N[C@H]1CC[C@H](NC(=O)O[C@@H]2CCN(c3cn[nH]c(=O)c3Cl)C2)CC1 [P-0174, (R)-1-(5-chloro-6-oxo-1,6-dihydropyridazin-4-yl)pyrrolidin-3-yl ((1r,4R)-4-(3-cyclohexylureido)cyclohexyl) carbamate]	5.00 to 9.00	5.00 to 9.00
O=C(N[C@H]1CC[C@H](NS(=O)(=O)c2ccc(F)cc2)CC1)O[C@@H]1CCN(c2cn[nH]c(=O)c2Cl)C1 [P-0175, (R)-1-(5-chloro-6-oxo-1,6-dihydropyridazin-4-yl)pyrrolidin-3-yl ((1r,4R)-4-((4-fluorophenyl)sulfonamido)cyclohexyl)carbamate]	5.00 to 9.00	5.00 to 9.00
O=C(N[C@H]1CC[C@H](NS(=O)(=O)c2ccccc2F)CC1)O[C@@H]1CCN(c2cn[nH]c(=O)c2Cl)C1 [P-0176, (R)-1-(5-chloro-6-oxo-1,6-dihydropyridazin-4-yl)pyrrolidin-3-yl ((1r,4R)-4-((2-fluorophenyl)sulfonamido)cyclohexyl)carbamate]	5.00 to 9.00	5.00 to 9.00
O=C(NCC1(CCl)CC(NC(=O)O[C@@H]2CCN(c3cn[nH]c(=O)c3Cl)C2)C1)Nc1ccc(F)cc1 (stereo partly drawn) [P-0177, (R)-1-(5-chloro-6-oxo-1,6-dihydropyridazin-4-yl)pyrrolidin-3-yl (3-(chloromethyl)-3-((3-(4-fluorophenyl)ureido)methyl)cyclobutyl)carbamate]	5.00 to 9.00	5.00 to 9.00
